Data as given in US10124033B2, “Peptides and methods of use” (BAXALTA INCORPORATED, priority 2014, dated 2018).
Non-standard residues stand in square brackets, D forms with d. Residues, ends and D or L forms follow the SMILES beside them. Tle = CC(C)(C)[C@H](N)C(=O)O

Legend:
[1] = molecular target: T1, Protein S (Homo sapiens, UniProt P07225); assay: LANCE IC50 assay (competition TR-FRET) with tracer JBS0684; type: binding; settings: Table 4, multiple substitutions in JBS2572; read-out: LANCE IC50
T1 sequence (P07225 41-676 limits assumed): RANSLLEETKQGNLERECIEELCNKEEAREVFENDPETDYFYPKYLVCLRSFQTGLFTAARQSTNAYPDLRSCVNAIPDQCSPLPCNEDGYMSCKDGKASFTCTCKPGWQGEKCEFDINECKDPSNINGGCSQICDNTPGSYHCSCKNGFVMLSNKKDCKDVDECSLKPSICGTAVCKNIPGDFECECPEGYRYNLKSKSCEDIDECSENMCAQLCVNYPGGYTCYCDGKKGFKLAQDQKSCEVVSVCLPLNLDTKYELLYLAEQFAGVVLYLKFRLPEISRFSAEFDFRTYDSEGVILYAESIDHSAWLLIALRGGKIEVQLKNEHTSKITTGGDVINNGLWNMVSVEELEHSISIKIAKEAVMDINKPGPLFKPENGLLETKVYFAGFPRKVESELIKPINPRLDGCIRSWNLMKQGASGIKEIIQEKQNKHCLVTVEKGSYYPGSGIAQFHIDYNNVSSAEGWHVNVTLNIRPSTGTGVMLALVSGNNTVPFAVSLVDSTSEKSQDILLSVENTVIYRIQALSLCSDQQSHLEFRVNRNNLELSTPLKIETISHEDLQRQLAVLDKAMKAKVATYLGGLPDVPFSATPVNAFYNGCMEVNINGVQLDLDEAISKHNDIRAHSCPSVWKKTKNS
Description: Peptides also were characterized in a competition, homogenous europium-based TR-FRET assay (LANCE IC50 assay) using JBS0684 as a tracer (i.e., competitor for Protein S binding). The following reagents were mixed together in a Perkin-Elmer ProxiPlate MTP well (indicated concentration is the final concentration): Eu-labeled Protein S (10 nM), Ulight™-labeled Streptavidin (100 nM), tracer (JBS0684 (300 nM)), and peptide (titrated in three-fold dilution steps). The final volume was 50 μl/well. The reaction mix was incubated for 1 hour at room temperature, then the fluorescence emission at 665 nm was recorded on a multi-mode reader (SpectraMax® M5, Molecular Devices) using the following instrument settings: Ex 340 nm, Em 665 nm, delay 50 μsec, integration 100 μsec, reads 100. Binding of tracer peptides to soluble europium-labeled Protein S was detected by Streptavidin labeled with an acceptor fluorophor (ULight™). Inhibition of tracer-binding to Protein S by a non-biotinylated peptide results in a decrease of TR-FRET between the Eu-labeled Protein S and ULight™-labeled Streptavidin. IC50 values were obtained from peptide titration curves at constant tracer concentration using non-linear regression of the fluorescence emission signals at 665 nm.

[2] = molecular target: T2, Protein S/APC cofactor activity (Homo sapiens, UniProt P07225); assay: CAT assay in pooled normal plasma supplemented with 3 nM APC; type: biochemical; settings: 6 pM TF, 15 μM phospholipids
T2 construct: host or cells: plasma
T2 sequence (P07225 41-676 limits assumed): T1 sequence (P07225 41-676 limits assumed)
Description: Peptides also were tested for improvement of Protein S/APC-dependent thrombin generation in hemophilic plasma using a CAT assay. Protein S enhances the anticoagulation of APC in plasma. The CAT assay quantifies the effect of Protein S on APC-mediated thrombin generation initiated via the extrinsic coagulation pathway (Nicolaes, Blood Coagul. Fibrinolysis, 8:28 (1997)). APC (35 nM) and Protein S (25 nM) was added to Protein 5-depleted plasma, and plasma samples were incubated with high titer heat inactivated anti-human FVIII plasma raised in goat (4490 BU/ml; Baxter BioScience, Vienna, Austria; 50 BU/ml final plasma concentration). Thrombin formation in plasma was followed by calibrated automated thrombography (CAT) in a Fluoroskan Ascent® reader (Thermo Labsystems, Helsinki, Finland) and quantified via the thrombin peak-height. Thrombin generation was determined at high tissue factor (TF) concentration in the absence and in the presence of APC at a concentration that reduces the peak height to 20%. The inhibitory effect of peptides described herein on the APC cofactor activity of Protein S (PS) in plasma was measured in FVIII-inhibited pooled normal plasma supplemented with APC. Complete (100%) Protein S/APC inhibition is the height of the thrombin peak without addition of APC. Lack of (0%) PS/APC inhibition correlates to the thrombin peak-height value with a certain amount of APC. Peptides were ranked by their normalized values in comparison to the mean of wild-type controls including SD at two defined peptide concentrations (EC50 and EC90). […] For the assays, pooled normal plasma was supplemented with 3 nM APC and triggered with 6 pM TF, and 15 μM phospholipids (DOPC/POPS 80/20). Stock APC was diluted with TF-PL-MIX to 24 nM (plasma concentration: 3 nM).

[3] = tested on: thrombin generation; assay: thrombin generation in non-human mammals; type: biochemical; settings: cynomolgous monkey, marmoset monkey, pig, sheep, dog, rabbit, rat, and mouse
[4] = molecular target: T3, human full-length Protein S (Homo sapiens, UniProt P07225); assay: Biacore (surface plasmon resonance) on immobilized Protein S; type: binding; settings: Biacore
T3 construct: using human full-length Protein S and human GAS6
T3 sequence (P07225 41-676 limits assumed): T1 sequence (P07225 41-676 limits assumed)
Description: Protein S affinity also was determined via Biacore (Biacore 3000 or Biacore T200) using human full-length Protein S and human GAS6. Briefly, 1000 RU of Protein S or GAS6 were immobilized on a CMS chip. In order to probe the kinetics of Protein S binding peptides to Protein S, the peptides were injected at various concentrations in a HBS-buffer containing 3 mM CaCl2 and 1% DMSO to the flow cell and allowed to interact with the immobilized proteins on the sensor chip. The chip could be regenerated with 4 M MgCl2 in HBS-buffer. Sensorgrams were fitted to a Langmuir binding model for the determination of kon and koff and the calculation of KD. Peptides were tested on their specificity to Protein S with peptide binding studies on the anti-target GAS6.

[5] = plasma stability in mouse plasma; type: in vitro ADME; settings: 37° C.
Description: (§1) Affinity and activity of all 18 peptides was improved compared to parent JBS2572. […] Activity and stability were improved up to 1.5-fold. Plasma stability was determined in pooled normal human plasma and mouse plasma at 37° C.; exemplary results also are provided in Table 3.

[6] = tested on: Protein S/APC dependent thrombin generation; assay: CAT assay in plasmas from individuals with severe hemophilia A; type: biochemical, human; settings: plasma of severe hemophilia A patients
[7] = molecular target: T4, C4BP/PS complex (Homo sapiens, UniProt P07225); assay: LANCE IC50 assay on preformed C4BP/PS complex; type: binding; settings: two hours of incubation, 100 nM peptide
T4 sequence (P07225 41-676 limits assumed): T1 sequence (P07225 41-676 limits assumed)
Description: To investigate the effect of the peptides described herein on PS/C4BP complexes, a LANCE IC50 assay was established using methods similar to those described above. JBS2572 or JBS3216 was added to a preformed C4BP/PS complex. Changes in the complex concentration were followed by recording the TR-FRET signal. For both peptides, a time- and concentration-dependent dissociation of the C4BP/PS complex was observed. The IC50 of JBS3216 was 0.3 nM, and the IC50 of JBS2572 was 2 nM. The time-dependency of the complex reduction was similar for both peptides. After two hours of incubation in the presence of 100 nM JBS2572 or JBS3216, the C4BP/PS complex was reduced to 60% and 50%, respectively. In addition, binding of biotinylated JBS2572 to Protein S was inhibited by C4BP in the LANCE IC50 assay. Pull-down experiments where JBS2697 was coupled to streptavidin sepharose and incubated for one hour at room temperature with (a) Protein S (1.6 pmol) (b) C4BP (8.5 pmol) and (c) Protein S (1.6 pmol)+C4BP (8.5 pmol) supported the results from the modified LANCE IC50 assay.

[8] = plasma stability in pooled normal human plasma; type: in vitro ADME
Description: as §1

Compound: CSCC[C@H](NC(=O)[C@H](Cc1ccc(O)cc1)NC(=O)[C@H](Cc1c[nH]cn1)NC(=O)[C@H](CC(=O)O)NC(=O)[C@H](Cc1ccccc1)NC(=O)[C@H](CC(N)=O)NC(=O)[C@H](Cc1ccc(O)cc1)NC(=O)[C@H](CC(=O)O)NC(=O)[C@H](Cc1ccc(O)cc1)NC(=O)[C@H](Cc1c[nH]c2ccccc12)NC(=O)CNC(=O)[C@H](C)NC(=O)[C@H](CO)NC(=O)[C@@H](NC(=O)[C@H](CC(C)C)NC(=O)CNC(=O)[C@@H](NC(C)=O)[C@@H](C)O)C(C)(C)C)C(=O)N[C@@H](CCC(=O)O)C(=O)N[C@@H](Cc1ccccc1)C(=O)N[C@H](C(N)=O)[C@@H](C)O [JBS3203, Ac-TGL-Tle-SAGWYDYNFDHYMEFT-NH2] (Ac-TGL[Tle]SAGWYDYNFDHYMEFT-NH2)
- IC50 [1]: 1.8 nM
- EC50 [2]: 127 nM

Compound: CSCC[C@H](NC(=O)[C@H](Cc1ccc(O)cc1)NC(=O)[C@@H](NC(=O)[C@H](CC(=O)O)NC(=O)[C@H](CC(N)=O)NC(=O)[C@H](CC(N)=O)NC(=O)[C@H](Cc1ccc(O)cc1)NC(=O)[C@H](CC(=O)O)NC(=O)[C@H](Cc1ccc(O)cc1)NC(=O)[C@H](Cc1c[nH]c2ccccc12)NC(=O)CNC(=O)[C@H](C)NC(=O)[C@H](CCC(=O)O)NC(=O)[C@@H](NC(=O)[C@H](CC(C)C)NC(=O)CNC(=O)[C@H](Cc1ccc(O)cc1)NC(C)=O)C(C)C)[C@@H](C)O)C(=O)N[C@@H](CCC(=O)O)C(=O)N[C@@H](Cc1ccccc1)C(=O)N[C@H](C(N)=O)[C@@H](C)O [JBS3201] (Ac-YGLVEAGWYDYNNDTYMEFT-NH2)
- IC50 [1]: 1.9 nM
- EC50 [2]: 127 nM

Compound: CSCC[C@H](NC(=O)[C@H](Cc1ccc(O)cc1)NC(=O)[C@H](Cc1c[nH]cn1)NC(=O)[C@H](CC(=O)O)NC(=O)[C@H](Cc1ccccc1)NC(=O)[C@H](CC(N)=O)NC(=O)[C@H](Cc1ccc(O)cc1)NC(=O)[C@H](CC(=O)O)NC(=O)[C@H](Cc1ccc(O)cc1)NC(=O)[C@H](Cc1c[nH]c2ccccc12)NC(=O)CNC(=O)[C@H](C)NC(=O)[C@H](CO)NC(=O)[C@@H](NC(=O)[C@H](CC(C)C)NC(=O)CNC(=O)[C@H](Cc1ccc(O)cc1)NC(C)=O)C(C)C)C(=O)N[C@@H](CCC(=O)O)C(=O)N[C@@H](Cc1ccccc1)C(=O)N[C@H](C(N)=O)[C@@H](C)O [JBS3196] (Ac-YGLVSAGWYDYNFDHYMEFT-NH2)
- IC50 [1]: 2.2 nM
- EC50 [2]: 155 nM

Compound: CC(=O)N[C@@H](CCC(=O)O)C(=O)N[C@@H](Cc1ccc(O)cc1)C(=O)N[C@@H](Cc1ccc(O)cc1)C(=O)N[C@H](C(=O)N[C@@H](CO)C(=O)N[C@@H](C)C(=O)NCC(=O)N[C@@H](Cc1c[nH]c2ccccc12)C(=O)N[C@@H](Cc1ccc(O)cc1)C(=O)N[C@@H](CC(=O)O)C(=O)N[C@@H](Cc1ccc(O)cc1)C(=O)N[C@@H](CC(N)=O)C(=O)N[C@H](C(=O)N[C@@H](CC(=O)O)C(=O)N[C@H](C(=O)N[C@@H](Cc1ccc(O)cc1)C(=O)N[C@@H](Cc1ccc(O)cc1)C(=O)N[C@@H](CCC(=O)O)C(=O)N[C@@H](Cc1ccccc1)C(=O)N[C@@H](CCC(=O)O)C(N)=O)[C@@H](C)O)[C@@H](C)O)C(C)C [JBS3216] (Ac-EYYVSAGWYDYNTDTYYEFE-NH2)
- thrombin generation in non-human mammals [3]: improved thrombin generation
- koff ([4]; Table 3, read-out: koff): 0.000233 s⁻¹
- kon ([4]; Table 3, read-out: kon): 1.14e+06 M⁻¹ s⁻¹
- Kd ([4]; affinity-matured and modified peptides, read-out: KD): 0.2 nM
- Stability in mouse plasma; 4 hours [%] [5]: 66 ± 23%
- EC50 [6]: 85 nM
- C4BP/PS complex reduced to [7]: 50%
- binding activity remaining after incubation in human plasma ([8]; 24 hours of incubation in human plasma): 50%
- Stability in human plasma; 6 hours [%] ([8]; pooled normal human plasma, 37° C., 6 hours): 80 ± 2%
